Experimental data published in patent publication US20180235917A1, “COMPOSITIONS, METHODS AND KITS FOR TREATMENT OF DIABETES AND/OR […]” (NuSirt Sciences, Inc., priority 2014, published 2018).
Read-outs that look alike come from different tables or passages of the source.

Columns and labels:
[1] = tested on: adipocytes (3T3-L1) and myotubes (C2C12); experiment: Fatty acid oxidation and dose-response screening, cell type not stated; type: cell-based, mouse; conditions: for synergy with leucine or HMB in stimulating fatty acid oxidation: compound at its no-effect concentration with leucine 0.5 mM or HMB 5 μM
diabetic db/db mice = conditions: for decrease in blood glucose over the 30 minute linear portion of the insulin tolerance test: insulin 0.75 U/kg
[2] = tested on: diet-induced obesity mice; experiment: High fat diet-induced obese, insulin resistant mice: GTT, ITT, glucose, insulin, HOMAIR, muscle Western blot (Example 12); type: in vivo, C57/BL6 mice; conditions: HFD, no metformin; for glucose tolerance test (fasting and post-prandial hyperglycemia): Leu 24 g/kg diet with or without Res 12.5 mg/kg diet
Sirt3 = biological target: T1, Sirt3 (Mus musculus, UniProt Q8R104); experiment: Sirt3 stimulation; type: cell-based; conditions: leucine 0.5 mM, HMB 5 μM, resveratrol 200 nM
T1 construct: endogenous in cells; host or cells: 3T3-L1 adipocytes and/or C2C12 myotubes (inferred)
T1 sequence (Q8R104 1-334): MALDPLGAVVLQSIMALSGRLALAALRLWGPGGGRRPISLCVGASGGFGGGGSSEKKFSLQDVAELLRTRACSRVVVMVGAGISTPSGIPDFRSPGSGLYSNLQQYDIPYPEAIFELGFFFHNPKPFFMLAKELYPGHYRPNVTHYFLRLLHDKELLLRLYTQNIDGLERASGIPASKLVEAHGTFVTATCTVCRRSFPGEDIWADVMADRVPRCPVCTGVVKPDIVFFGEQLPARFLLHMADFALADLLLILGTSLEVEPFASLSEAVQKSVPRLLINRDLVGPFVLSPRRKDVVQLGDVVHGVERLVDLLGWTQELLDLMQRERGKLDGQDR

[3] = tested on: LDL receptor knockout mice; experiment: LDL receptor knockout mice on western diet: plasma lipids, atherosclerosis, macrophage infiltration (Example 7); type: in vivo, mouse
Description: LDL receptor knockout (LDLRKO) mice were obtained from Jackson Laboratories (Bar Harbor, Me.), and housed in groups under room temperature in a humidity-controlled environment with a regular light and dark cycle. The mice were provided free access to an atherogenic western diet (WD) containing 0.21% cholesterol (by weight) and 40% calories from fat and water for 4 weeks prior to treatment. For treatment, the mice were given (a) the WD diet alone, (b) WD and 24 g of leucine/kg diet, (c) WD and 24 g of leucine/kg diet and 50 mg nicotinic acid/kg diet, (d) WD and 24 g of leucine/kg diet and 250 mg nicotinic acid/kg diet, or (e) WD and 1000 mg nicotinic acid/kg diet; this is approximately equivalent to a low therapeutic dose of nicotinic acid in hypercholesterolemic humans (˜1,500 mg/day). The treatments were administered for eight weeks continuously.
Blood samples of the mice in all groups were obtained from tails of the mice at following four and eight weeks of administration. The serum/plasma levels of triglyceride, total cholesterol and cholesterol esters were measured. Following treatment, food was removed for four hours and the animals were euthanized.
Blood was collected into EDTA-coated tubes to analyze plasma lipid and cholesterol profiles. Plasma total cholesterol (TC, Pointe Scientific, Canton, Mich.), free cholesterol (FC, Wako, Richmond, Va.) and triglyceride (TG, Wako, Richmond, Va.) concentrations were measured using enzymatic assays according to manufacturer's instructions. Cholesterol ester (CE) was calculated as the difference between TC and FC.
To assess atherosclerosis, the circulatory system was perfused following euthanasia with phosphate-buffered saline (PBS) before removing the heart and aorta. The upper one-third of the heart was dissected and embedded in Optimal Cutting Temperature Compound (Sakura Tissue-Tek, Torrance, Calif.), frozen, and stored at −80° C. Blocks were serially cut at 8 μm intervals and stained with hematoxylin and 0.5% Oil Red O (Sigma-Aldrich) to evaluate aortic sinus atherosclerotic intimal area. Atherosclerotic lesion area and Oil Red O positive area were quantified using Image-Pro Plus software (Media Cybernetics, Bethesda, Md.). Whole aorta (from sinotubular junction to iliac bifurcate) was dissected and fixed in 10% formalin, and the adventitia was cleaned. Aortas were opened along the longitudinal axis and pinned onto black silicon elastomer (Rubber-Cal, Santa Ana, Calif.) for the quantification of atherosclerotic lesion area. The percentage of total aortic surface covered with atherosclerotic lesions was quantified by Image-Pro Plus software (Media Cybernetics, Bethesda, Md.) and used to determine the total lesion area.
To assess macrophage infiltration, Sections of aortic sinus were immuno-stained with rat monoclonal antibody against macrophage-specific CD68 (Clone FA11, 1:75, AbD Serotec, Raleigh, N.C.) followed by staining with alkaline phosphatase-conjugated mouse anti-rat (for CD68, 1:50) secondary antibodies (Jackson ImmunoResearch laboratories, West Grove, Pa.). Control slides contain no primary antibody. The CD68-positive areas were analyzed using Image-Pro Plus software (Media Cybernetics, Bethesda, Md.).

Caenorhabditis elegans = experiment: Lifespan of C. elegans (Example 10); type: in vivo; conditions: basal conditions; leucine 0.5 mM, nicotinic acid 10 nM
Protocol: Eggs were hatched on a starved plate overnight. […] All treatments were added with the indicated concentrations to E. coli the agar plates. […] The worms were maintained at 20° C. throughout the duration of the study. Worms were transferred to new plates daily to eliminate progeny. […] The study was continued until the last animal was dead. Data were analyzed via Kaplan-Meier survival curves using Prism 6 (GraphPad Software) and statistical significance was determined by the Log-rank (Mantel-Cox) test.

C2C12 myotubes = experiment: Glucose utilization (extracellular acidification response to glucose) in myotubes; type: cell-based, mouse
[4] = high dose metformin 300 mg/kg bw

## Cn1c(=O)c2[nH]cnc2n(C)c1=O [Theophylline, reference compound]
[1]; compound alone
  concentrations that exert no effect (dose-response curves; sub-therapeutic dose): below 1 μM

## OC[C@@H](O)[C@@H](O[C@H]1O[C@H](CO)[C@@H](O)[C@H](O)[C@H]1O)[C@H](O)[C@@H](O)CO [Maltitol]
[1]; compound alone
  concentrations that exert no effect (dose-response curves; sub-therapeutic dose): ≤ 100 nM
[1]
  synergy with leucine or HMB in stimulating fatty acid oxidation: no synergy

## O[C@H]1[C@H](O)[C@@H](O)[C@H](O)[C@@H](O)[C@H]1O [Myo-inositol]
[1]
  synergy with leucine or HMB in stimulating fatty acid oxidation: no synergy

## OC[C@@H](O)[C@@H](O)[C@H](O)[C@@H](O)CO [Sorbitol]
[1]
  synergy with leucine or HMB in stimulating fatty acid oxidation: no synergy

## Fucoxanthin
[1]; compound alone
  concentrations that exert no effect (dose-response curves; sub-therapeutic dose): ≤ 100 nM

## CN(C)C(=N)N=C(N)N [Metformin]
Diabetic db/db mice; db/db mice, 2 weeks, high dose metformin 300 mg/kg bw (1.5 g/kg diet)
  reduction of plasma insulin: 27%
Diabetic db/db mice; [4]
  effect on plasma glucose: no significant effect
  effects on body composition: no significant effects
Diabetic db/db mice; high dose metformin 300 mg/kg bw, control 62
  plasma insulin: 45 uU/mL
Diabetic db/db mice; low dose (150 mg/kg) and very low dose (50 mg/kg) metformin alone
  effects on any variable studied: no significant independent effects
Diabetic db/db mice; low or very low dose of metformin, alone or as blend
  decrease in blood glucose over the 30 minute linear portion of the insulin tolerance test: minimal changes
Diabetic db/db mice; metformin at any dosage in the absence of HMB
  effect on visceral fat mass: not affected
Diabetic db/db mice; standard metformin dose (1.5 g/kg diet)
  decrease in blood glucose over the 30 minute linear portion of the insulin tolerance test: ~60 mg/dL

## CC(C)C[C@H](N)C(=O)O [Leucine, leucine]
[2]
  glucose tolerance test (fasting and post-prandial hyperglycemia): not significantly affected
[2]; listed as leucine
  glucose tolerance test (fasting and post-prandial hyperglycemia): no independent effect
[2]; Leu 24 g/kg diet
  insulin tolerance test: no independent effect
Sirt3
  stimulation of Sirt3: no independent effects
[3]; eight weeks, doses as E77
  decrease in aortic macrophage infiltration (CD68 positive area): significant independent effect
[3]; eight weeks, nicotinic acid 1,000 mg/kg diet, leucine 24 g/kg diet, or leucine + nicotinic acid 50 mg/kg diet, vs western diet alone
  decrease in atherosclerotic lesion size (lesion and lipid area): exerted an independent effect
[3]; four weeks, doses as E73
  decrease in plasma cholesterol esters: no independent effect
[3]; four weeks, western diet + nicotinic acid 1,000 mg/kg diet, leucine 24 g/kg diet, or leucine + nicotinic acid 50 or 250 mg/kg diet
  decrease in plasma total cholesterol: no independent effect
Caenorhabditis elegans
  effect on lifespan: no independent effect
C2C12 myotubes; C2C12 myotubes, 5 nM insulin, galegine 5 μM, leucine 0.5 mM
  increase in insulin-stimulated glucose utilization: no effect

## CC(C)Cn1c(=O)n(C)c(=O)c2[nH]cnc21 [IBMX, 3-isobutyl-1-methylxanthine, reference compound]
[1]
  synergy with leucine or HMB in stimulating fatty acid oxidation: weak but statistically significant synergy with HMB, but not leucine

## O=c1oc2c(O)c(O)cc3c(=O)oc4c(O)c(O)cc1c4c23 [Ellagic acid]
[1]; even at high concentrations (50 μM)
  activity in dose-response curves: little activity

## O=C(O)/C=C/c1ccc(O)c(O)c1 [Caffeic acid]
[1]; compound alone
  concentrations that exert no effect (dose-response curves; sub-therapeutic dose): ≤ 1000 nM

## O=C(O[C@@H]1Cc2c(O)cc(O)cc2O[C@@H]1c1cc(O)c(O)c(O)c1)c1cc(O)c(O)c(O)c1 [EGCG, epigallocatechin gallate]
[1]; compound alone
  direct stimulation of fatty acid oxidation: minimally active
[1]
  synergy with leucine or HMB in stimulating fatty acid oxidation: do not detect synergistic effects
C2C12 myotubes; extracellular acidification response to glucose, concentrations as in E26
  increase in glucose utilization in myotubes: no independent effect
